Reference: patent publication US9682925B2, “Cyclopropaneamine compound” (TAKEDA PHARMACEUTICAL COMPANY LIMITED, priority 2011, dated 2017)
Structures can show the parent of a compound that is named as a salt.

Columns and labels:
Assay type in all cases: biochemical
MAO-A = target: T1, MAO-A (Homo sapiens, UniProt P21397); test: Measurement of MAO-A inhibitory activity (MAO-Glo Assay)
T1 construct: purchased Sigma-Aldrich Co. LLC
T1 sequence (P21397 1-527): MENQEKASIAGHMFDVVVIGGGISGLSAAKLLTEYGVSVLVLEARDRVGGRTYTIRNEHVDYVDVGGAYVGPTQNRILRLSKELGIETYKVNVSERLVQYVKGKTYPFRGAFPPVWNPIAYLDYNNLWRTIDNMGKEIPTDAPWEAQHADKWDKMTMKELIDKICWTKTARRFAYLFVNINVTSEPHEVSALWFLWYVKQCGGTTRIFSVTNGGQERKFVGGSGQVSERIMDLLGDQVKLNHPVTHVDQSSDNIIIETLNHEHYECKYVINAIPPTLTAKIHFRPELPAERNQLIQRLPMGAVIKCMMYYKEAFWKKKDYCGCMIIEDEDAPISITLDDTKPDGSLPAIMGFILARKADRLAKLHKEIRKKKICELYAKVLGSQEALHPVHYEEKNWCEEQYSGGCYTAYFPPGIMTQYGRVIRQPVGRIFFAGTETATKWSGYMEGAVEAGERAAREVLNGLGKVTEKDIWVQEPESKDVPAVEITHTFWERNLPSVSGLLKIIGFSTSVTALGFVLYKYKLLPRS
How it was run: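 Luminescent MAO-Glo read-out: % inhibition computed from counts relative to enzyme-only control and enzyme-free blank. Compound and 400 ng MAO-A in HEPES pH 7.5 with 5% glycerol stood 10 min at room temperature before MAO substrate (160 μM stock) started a 60 min reaction.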

MAO-B = target: T2, MAO-B (Homo sapiens, UniProt P27338); test: Measurement of MAO-B inhibitory activity (MAO-Glo Assay)
T2 construct: purchased Sigma-Aldrich Co. LLC
T2 sequence (P27338 1-520): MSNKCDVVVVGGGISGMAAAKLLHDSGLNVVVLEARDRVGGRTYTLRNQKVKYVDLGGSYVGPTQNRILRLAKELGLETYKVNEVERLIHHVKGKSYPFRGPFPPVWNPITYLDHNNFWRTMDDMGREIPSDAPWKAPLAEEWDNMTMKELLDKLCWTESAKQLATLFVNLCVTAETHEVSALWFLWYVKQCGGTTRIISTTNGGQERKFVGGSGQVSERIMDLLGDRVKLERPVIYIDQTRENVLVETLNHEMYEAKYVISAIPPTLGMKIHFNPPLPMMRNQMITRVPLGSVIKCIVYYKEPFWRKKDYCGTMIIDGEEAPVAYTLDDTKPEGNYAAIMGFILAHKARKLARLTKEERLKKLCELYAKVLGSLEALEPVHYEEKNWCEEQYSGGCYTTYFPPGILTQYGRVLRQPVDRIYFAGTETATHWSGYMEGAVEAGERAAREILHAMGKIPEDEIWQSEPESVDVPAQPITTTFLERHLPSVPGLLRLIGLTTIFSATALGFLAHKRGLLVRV
How it was run: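 Percent inhibition was calculated from luciferin-based luminescence, corrected with a blank lacking enzyme and a control lacking compound. The reaction ran 60 min at room temperature after adding MAO substrate (16 µM as added). This followed a 10 min compound–enzyme preincubation in HEPES pH 7.5 buffer.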

human LSD1(171-852) = target: T3, human LSD1(171-852) (Homo sapiens, UniProt O60341); test: Measurement of LSD1 inhibitory activity (time-resolved fluorescence, biotin-histone H3 mono methylated K4 peptide); details: read-out: LSD1 IC50 value
T3 construct: to give hLSD1(171-852) purified product; made in house; host or cells: Escherichia coli C43(DE3) pLysS

Structure (SMILES) | IC50 (MAO-A) [µM] | IC50 (MAO-B) [µM] | IC50 (human LSD1(171-852)) [µM]
O=C(Nc1ccc([C@@H]2C[C@H]2NCc2ccccc2F)cc1)c1ccccc1 (relative stereo) [Example 15, N-(4-{trans-2-[(2-fluoro-benzyl)amino]-cyclopropyl}-phenyl)benzamide] | 6 | > 10 | < 0.1
O=C(Nc1ccc([C@@H]2C[C@H]2NCc2ccc3nccn3c2)cc1)c1cccc(C(F)(F)F)c1 (relative stereo) [Example 107, N-(4-{trans-2-[(imidazo[1,2-a]pyridin-6-ylmethyl)amino]cyclopropyl}phenyl)-3-(trifluoromethyl)benzamide dihydrochloride] | 4.3 | > 10 | < 0.1
CCCCCCCCN[C@@H]1C[C@H]1c1ccc(NC(=O)c2ccccc2)cc1 (relative stereo) [Example 2, N-{4-[trans-2-(octylamino)cyclopropyl]phenyl}benzamide] | 9.3 | > 10 | 0.2
O=C(Nc1ccc([C@@H]2C[C@H]2NC2CCC(F)(F)CC2)cc1)c1cccc(C(F)(F)F)c1 (relative stereo) [Example 154, N-(4-{trans-2-[(4,4-difluorocyclohexyl)amino]cyclopropyl}phenyl)-3-(trifluoromethyl)benzamide hydrochloride] | > 10 | > 10 | < 0.1
O=C(Nc1ccc([C@@H]2C[C@H]2NCc2ccc(-c3ccccc3)cc2)cc1)c1ccccc1 (relative stereo) [Example 16, N-(4-{trans-2-[(biphenyl-4-ylmethyl)amino]-cyclopropyl}-phenyl)benzamide] | 4.7 | > 10 | < 0.1
O=C(Nc1ccc([C@@H]2C[C@H]2NCC2CC2)cc1)c1cc2ccccc2o1 (relative stereo) [Example 129, N-(4-{trans-2-[(cyclopropyl-methyl)amino]cyclo-propyl}phenyl)-1-benzofuran-2-carboxamide] | 8.2 | > 10 | < 0.1
O=C(Nc1ccc([C@@H]2C[C@H]2NC2CCN(Cc3ccccc3)CC2)cc1)c1ccc(-c2ccccc2)cc1 (relative stereo) [Example 51, N-(4-{trans-2-[(1-benzylpiperidin-4-yl)amino]cyclo-propyl}phenyl)-biphenyl-4-carboxamide] | > 10 | > 10 | 0.1
NS(=O)(=O)c1ccc(C(=O)Nc2ccc([C@@H]3C[C@H]3NCC3CC3)cc2)cc1 (relative stereo) [Example 88, N-(4-{trans-2-[(cyclopropylmethyl)amino]cyclopropyl}-phenyl)-4-sulfamoylbenzamide] | > 10 | > 10 | < 0.1
Cc1ccc(-c2ccc(C(=O)Nc3ccc([C@@H]4C[C@H]4NCC4CC4)cc3)cc2)cc1 (relative stereo) [Example 118, N-(4-{trans-2-[(cyclopropylmethyl)amino]cyclopropyl}-phenyl)-4′-methylbiphenyl-4-carboxamide] | > 10 | > 10 | 0.1
O=C(Nc1ccc([C@@H]2C[C@H]2NCc2c[nH]cn2)cc1)c1ccc(-c2ccccc2)cc1 (relative stereo) [Example 66, N-(4-{trans-2-[(1H-imidazol-4-ylmethyl)amino]cyclopropyl}phenyl)biphenyl-4-carboxamide dihydrochloride] | > 10 | > 10 | < 0.1
O=C(Nc1ccc([C@@H]2C[C@H]2NCc2ccccc2)cc1)c1cccc(-c2ccccc2)c1 (relative stereo) [Example 36, N-{4-[trans-2-(benzylamino)cyclopropyl]phenyl}biphenyl-3-carboxamide] | 4.6 | > 10 | < 0.1
CC(C)(C)CN[C@@H]1C[C@H]1c1ccc(NC(=O)c2ccccc2)cc1 (relative stereo) [Example 17, N-(4-{trans-2-[(2,2-dimethyl-propyl)amino]-cyclopropyl)-phenyl)benzamide] | > 10 | > 10 | < 0.1
O=C(N[C@@H](Cc1ccccc1)C(=O)Nc1ccc(C2CC2NCc2ccccc2)cc1)OCc1ccccc1 (stereo in doubt) [Example 57, N-{4-[trans-2-(benzylamino)cyclopropyl]phenyl}-Nα-[(benzyloxy)carbonyl]-L-phenylalaninamide hydrochloride] | > 10 | > 10 | 0.48
O=C(Nc1ccc([C@@H]2C[C@H]2NCC2CC2)cc1)c1n[nH]c2ccccc12 (relative stereo) [Example 128, N-(4-{trans-2-[(cyclopropyl-methyl)amino]cyclo-propyl}phenyl)-1H-indazole-3-carboxamide] | 5.3 | > 10 | < 0.1
O=C(Nc1ccc([C@@H]2C[C@H]2NCc2ccccc2)cc1)c1cccc(Br)c1 (relative stereo) [Example 3, N-{4-[trans-2-(benzylamino)cyclopropyl]phenyl}-3-bromobenzamide] | 4.4 | 9 | < 0.1
O=C(Nc1ccc([C@@H]2C[C@H]2NCc2ccc3cccnc3n2)cc1)c1cccc(C(F)(F)F)c1 (relative stereo) [Example 162, N-(4-{trans-2-[(1,8-naphthyridin-2-ylmethyl)amino]cyclopropyl}phenyl)-3-(trifluoromethyl)benzamide hydrochloride] | 2.1 | > 10 | < 0.1
CN1CCC(N[C@@H]2C[C@H]2c2ccc(NC(=O)c3cccc(C(F)(F)F)c3)cc2)CC1 (single isomer, unassigned) [Example 153, N-(4-{(1S,2R) or (1R,2S)-2-[(1-methylpiperidin-4-yl)amino]cyclopropyl}phenyl)-3-(trifluoromethyl)benzamide dihydrochloride] | > 10 | > 10 | < 0.1
CS(=O)(=O)c1cccc(C(=O)Nc2ccc([C@@H]3C[C@H]3NCC3CC3)cc2)c1 (relative stereo) [Example 91, N-(4-{trans-2-[(cyclopropylmethyl)amino]cyclopropyl}-phenyl)-3-(methylsulfonyl)-benzamide] | > 10 | > 10 | < 0.1
O=C(Nc1ccc([C@@H]2C[C@H]2NCC2CC2)cc1)c1ccc2nc(-c3ccsc3)[nH]c2c1 (relative stereo) [Example 97, N-(4-{trans-2-[(cyclopropylmethyl)-amino]cyclopropyl}-phenyl)-2-(3-thienyl)-1H-benzimidazole-6-carboxamide] | > 10 | > 10 | < 0.1
O=C(Nc1ccc([C@@H]2C[C@H]2NC2CCNC(c3ccccc3)C2)cc1)c1cccc(C(F)(F)F)c1 (relative stereo) [Example 77, N-(4-{trans-2-[(2-phenylpiperidin-4-yl)amino]cyclopropyl}phenyl)-3-(trifluoromethyl)benzamide dihydrochloride] | 9.9 | > 10 | < 0.1
CN1CCC(N[C@@H]2C[C@H]2c2ccc(NC(=O)c3cccc(Br)c3)cc2)CC1 (relative stereo) [Example 5, 3-bromo-N-(4-{trans-2-[(1-methylpiperidin-4-yl)amino]cyclopropyl}phenyl)benzamide] | 7.7 | > 10 | < 0.1
O=C(Nc1ccc([C@@H]2C[C@H]2NCC2CC2)cc1)c1ccc2ncsc2c1 (relative stereo) [Example 90, N-(4-{trans-2-[(cyclopropylmethyl)amino]cyclopropyl}-phenyl)-1,3-benzothiazole-6-carboxamide] | > 10 | > 10 | < 0.1
O=C(Nc1ccc([C@@H]2C[C@H]2NCc2ccccc2)cc1)c1cccc(C(F)(F)F)c1 (relative stereo) [Example 8, N-{4-[trans-2-(benzylamino)cyclopropyl]phenyl}-3-(trifluoromethyl)benzamide] | 5.8 | > 10 | < 0.1
